Molecular target: human TREX1 (Homo sapiens (Human), UniProt Q9NSU2)
Assay: TREX1 Exonuclease Assay
Format: biochemical
Description: For human TREX1, the nucleotide sequence of the gene construct was codon optimized for expression in the bacterial host. The sequence was incorporated into the pMAL-c5e vector (NEB) downstream of a solubility-promoting MBP (maltose binding protein) fusion partner. The fusion protein product was expressed in E. coli strain BL21 (DE3) (Millipore) and purified in a series of chromatographic steps. Initial steps were conducted using a dextrin sepharose affinity column followed by a Q-sepharose ion exchange column (both GE Healthcare). After the second column the MBP partner was removed by incubation with enterokinase (NEB). Further purification was carried out with the second application of a Q-sepharose column followed by a Superdex 75 (GE Healthcare) size exclusion column. Finally, a heparin sepharose column (GE Healthcare) was applied to remove contaminating nucleotides.
To evaluate the effect of compounds on TREX1 activity, test compounds were serially diluted (11-point, 3-fold) from 10 mM stock solutions and delivered to 384-well low-volume assay plates in 80 nL DMSO using an acoustic dispenser. Next, 4 μL of human TREX1 (0.5 nM), or murine TREX1 (1 nM), diluted in assay buffer (20 mM Tris pH 7.5, 5 mM MgCl2, 100 μg/mL BSA, 0.002% Triton X-100, 2 mM DTT), was added to the assay plate. After incubating for 30 minutes, 4 μL of labeled DNA oligonucleotide (500 nM) in assay buffer was added to initiate TREX1 exonuclease activity. The reaction was allowed to proceed for 45 minutes at room temperature prior to the addition of 4 μL of 150 mM EDTA to halt TREX1 activity.

human TREX1, sequence (Q9NSU2 whole entry): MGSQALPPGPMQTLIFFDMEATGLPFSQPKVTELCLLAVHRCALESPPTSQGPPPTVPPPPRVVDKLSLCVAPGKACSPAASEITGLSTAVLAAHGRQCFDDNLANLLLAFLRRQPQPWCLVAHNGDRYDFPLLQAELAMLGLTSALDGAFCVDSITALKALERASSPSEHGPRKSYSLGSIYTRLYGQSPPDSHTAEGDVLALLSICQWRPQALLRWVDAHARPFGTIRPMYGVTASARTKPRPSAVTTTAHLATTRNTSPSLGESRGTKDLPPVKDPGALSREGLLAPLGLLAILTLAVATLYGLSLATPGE

`N[C@@H]1C[C@H]2C(=O)N([C@H](CCC(=O)O)C(=O)NCc3ccc(Cl)c(Cl)n3)CCC(CCc3ccccc3)N2C1` (stereo partly drawn) [Example 25] and `N[C@@H]1C[C@H]2C(=O)N([C@H](CCC(=O)O)C(=O)NCc3cc(Cl)c(Cl)cn3)CCC(CCc3ccccc3)N2C1` (stereo partly drawn) [Example 28] cannot be ordered by IC50: under 1000 nM for the first, under 1000 nM for the second.

`CCN(CC)C(=O)COC(=O)CC[C@H](C(=O)NCc1ccc(Cl)c(Cl)c1)N1CCC(CCc2ccccc2)N2C[C@H](N)C[C@H]2C1=O` (stereo partly drawn) [Example 88, (4R)-2-(diethylamino)-2-oxoethyl 4-((8R,9aS)-8-amino-1-oxo-5-phenethylhexahydro-1H-pyrrolo[1,2-a][1,4]diazepin-2(3H)-yl)-5-((3,4-dichlorobenzyl)amino)-5-oxopentanoate] and `CONC(=O)CC[C@H](C(=O)NCc1ccc(Cl)c(Cl)c1)N1CCC(CCc2ccccc2)N2C[C@H](N)C[C@H]2C1=O` (stereo partly drawn) [Example 117] cannot be ordered by IC50: under 1000 nM for the first, under 1000 nM for the second.

`CC(C)C[C@H](C(=O)NCc1ccc(F)c(F)c1)N1CCC(CCc2ccccc2)N2C[C@H](N)C[C@H]2C1=O` (stereo partly drawn) [Example 53] and `CC(C)C[C@H](C(=O)NCc1ccc(Cl)c(F)c1)N1CCC(CCc2ccccc2)N2C[C@H](N)C[C@H]2C1=O` (stereo partly drawn) [Example 54] cannot be ordered by IC50: under 1000 nM for the first, under 1000 nM for the second.

`CCOC(=O)CC[C@H](C(=O)N1CCC[C@H]1c1ccc(Cl)c(Cl)c1)N1CCC(CCc2ccccc2)N2C[C@H](N)C[C@H]2C1=O` (stereo partly drawn) [Example 98] and `N[C@@H]1C[C@H]2C(=O)N([C@H](CCC(=O)O)C(=O)N3CCOC[C@H]3c3ccc(Cl)c(Cl)c3)CCC(CCc3ccccc3)N2C1` (stereo partly drawn) [Example 32] cannot be ordered by IC50: under 1000 nM for the first, under 1000 nM for the second.

Compared with `N[C@@H]1C[C@H]2C(=O)N([C@H](CCC(=O)O)C(=O)NCc3ccc(Cl)cn3)CCC(CCc3ccccc3)N2C1` (stereo partly drawn) [Example 70, (4R)-4-((8R,9aS)-8-amino-1-oxo-5-phenethylhexahydro-1H-pyrrolo[1,2-a][1,4]diazepin-2(3H)-yl)-5-(((5-chloropyridin-2-yl)methyl)amino)-5-oxopentanoic Acid], `N[C@@H]1C[C@H]2C(=O)N([C@H](CCC(=O)O)C(=O)NCc3ccc(Cl)c(Cl)c3)CCC(CCOc3ccccc3)N2C1` (stereo partly drawn) [Example 71, (4R)-4-((8R,9aS)-8-amino-1-oxo-5-(2-phenoxyethyl)hexahydro-1H-pyrrolo[1,2-a][1,4]diazepin-2(3H)-yl)-5-((3,4-dichlorobenzyl)amino)-5-oxopentanoic Acid] is higher in IC50: under 1000 nM for the first, 1000 to 9990 nM for the second.

`N[C@@H]1C[C@H]2C(=O)N([C@H](CCC(=O)O)C(=O)NCc3ccc(Cl)c(Cl)c3)CCC(COc3ccc(F)cc3)N2C1` (stereo partly drawn) [Example 75] and `N[C@@H]1C[C@H]2C(=O)N([C@H](CCC(=O)NO)C(=O)NCc3ccc(Cl)c(Cl)c3)CCC(COc3ccc(F)cc3)N2C1` (stereo partly drawn) [Example 115] cannot be ordered by IC50: under 1000 nM for the first, under 1000 nM for the second.

`N[C@@H]1C[C@H]2C(=O)N([C@H](CCNS(=O)(=O)C(F)(F)F)C(=O)NCc3ccc(Cl)c(Cl)c3)CCC(CCc3ccccc3)N2C1` (stereo partly drawn) [Example 142] and `N[C@@H]1C[C@H]2C(=O)N([C@H](CCNS(=O)(=O)C3CC3)C(=O)NCc3ccc(Cl)c(Cl)c3)CCC(CCc3ccccc3)N2C1` (stereo partly drawn) [Example 133] cannot be ordered by IC50: under 1000 nM for the first, under 1000 nM for the second.

`COC(=O)CC[C@H](C(=O)NS(=O)(=O)c1ccc(Cl)c(Cl)c1)N1CCC(CCc2ccccc2)N2C[C@H](N)C[C@H]2C1=O` (stereo partly drawn) [Example 101] and `CNC(=O)CC[C@H](C(=O)NCc1ccc(Cl)c(Cl)c1)N1CCC(CCc2ccccc2)N2C[C@H](N)C[C@H]2C1=O` (stereo partly drawn) [Example 136] cannot be ordered by IC50: under 1000 nM for the first, under 1000 nM for the second.

First: N[C@@H]1C[C@H]2C(=O)N([C@H](CCC(=O)O)C(=O)NCc3ccc(Cl)c(Cl)c3)CCC(COc3cnccn3)N2C1 (stereo partly drawn) [Example 80]
Second: N[C@@H]1C[C@H]2C(=O)N([C@H](CCC(=O)O)C(=O)NCc3ccc(Cl)c(Cl)c3)CCC(COc3ccc(Cl)cc3)N2C1 (stereo partly drawn) [Example 74]
The IC50 of the first is higher: 1000 to 9990 nM for the first, under 1000 nM for the second. The second is the more potent here.

`CC(C)Oc1c(CNC(=O)[C@@H](CCC#N)N2CCC(CCc3ccccc3)N3C[C@H](N)C[C@H]3C2=O)ccc(Cl)c1Cl` (stereo partly drawn) [Example 141] and `N#CCC[C@H](C(=O)NCc1ccc(Cl)c(Cl)c1F)N1CCC(CCc2ccccc2)N2C[C@H](N)C[C@H]2C1=O` (stereo partly drawn) [Example 109] cannot be ordered by IC50: under 1000 nM for the first, under 1000 nM for the second.

`CC(C)C[C@H](C(=O)NCc1ccc(Cl)cc1Cl)N1CCC(CCc2ccccc2)N2C[C@H](N)C[C@H]2C1=O` (stereo partly drawn) [Example 48] and `CC(C)C[C@H](C(=O)NCc1cc(Cl)cc(Cl)c1)N1CCC(CCc2ccccc2)N2C[C@H](N)C[C@H]2C1=O` (stereo partly drawn) [Example 50] fall in the same range of IC50: 1000 to 9990 nM for the first, 1000 to 9990 nM for the second.

`CCOC(=O)CC[C@H](C(=O)NCc1cc(Cl)c(Cl)cc1F)N1CCC(CCc2ccccc2)N2C[C@H](N)C[C@H]2C1=O` (stereo partly drawn) [Example 94] and `CCOC(=O)CC[C@H](C(=O)NCc1ccc(Cl)c(Cl)c1OC)N1CCC(CCc2ccccc2)N2C[C@H](N)C[C@H]2C1=O` (stereo partly drawn) [Example 102] cannot be ordered by IC50: under 1000 nM for the first, under 1000 nM for the second.

`N#CCC[C@H](C(=O)NCc1ccc(Cl)c(Cl)c1)N1CCC(COc2cccc(F)c2)N2C[C@H](N)C[C@H]2C1=O` (stereo partly drawn) [Example 111] and `N#CC[C@H](C(=O)NCc1ccc(Cl)c(Cl)n1)N1CCC(CCc2ccccc2)N2C[C@H](N)C[C@H]2C1=O` (stereo partly drawn) [Example 113] cannot be ordered by IC50: under 1000 nM for the first, under 1000 nM for the second.

First: N[C@@H]1C[C@H]2C(=O)N([C@@H]3CCCN(S(=O)(=O)c4ccccc4)C3)CCC(CCc3ccccc3)N2C1 (stereo partly drawn) [Example 84]
Second: N[C@@H]1C[C@H]2C(=O)N([C@H]3CCCN(S(=O)(=O)c4ccc(Cl)c(Cl)c4)C3)CCC(CCc3ccccc3)N2C1 (stereo partly drawn) [Example 86]
The IC50 of the first is higher: 10000 to 100000 nM for the first, 1000 to 9990 nM for the second. The second is the more potent here.

Compared with `N#CC[C@H](C(=O)N1CCOC[C@H]1c1ccccc1)N1CCC(CCc2ccccc2)N2C[C@H](N)C[C@H]2C1=O` (stereo partly drawn) [Example 69], `N[C@@H]1C[C@H]2C(=O)N([C@@H]3CCCN(Cc4ccc(Cl)c(Cl)c4)C3=O)CCC(CCc3ccccc3)N2C1` (stereo partly drawn) [Example 35] is lower in IC50: 1000 to 9990 nM for the first, under 1000 nM for the second.

`COc1ccc(CNC(=O)[C@@H](CC(C)C)N2CCC(CCc3ccccc3)N3C[C@H](N)C[C@H]3C2=O)cc1Cl` (stereo partly drawn) [Example 58] and `CC(C)C[C@H](C(=O)N(C)Cc1ccc(Cl)c(Cl)c1)N1CCC(CCc2ccccc2)N2C[C@H](N)C[C@H]2C1=O` (stereo partly drawn) [Example 60] cannot be ordered by IC50: under 1000 nM for the first, under 1000 nM for the second.

Compared with `COc1c(CNC(=O)[C@@H](CCC(N)=O)N2CCC(CCc3ccccc3)N3C[C@H](N)C[C@H]3C2=O)ccc(Cl)c1Cl` (stereo partly drawn) [Example 106], `NC(=O)CC[C@H](C(=O)N1Cc2cc(Cl)c(Cl)cc2C1)N1CCC(CCc2ccccc2)N2C[C@H](N)C[C@H]2C1=O` (stereo partly drawn) [Example 20] is higher in IC50: under 1000 nM for the first, 10000 to 100000 nM for the second. The first is the more potent here.

`N[C@@H]1C[C@H]2C(=O)N(c3cccn(Cc4ccc(Cl)c(Cl)c4)c3=O)CCC(CCc3ccccc3)N2C1` (stereo partly drawn) [Example 38] and `N[C@@H]1C[C@H]2C(=O)N([C@H]3CCN(Cc4ccc(Cl)c(Cl)c4)C3=O)CCC(CCc3ccccc3)N2C1` (stereo partly drawn) [Example 33] cannot be ordered by IC50: under 1000 nM for the first, under 1000 nM for the second.

From patent US11583538B2, “Substituted pyrrolo[1,2-a]pyrazines and pyrrolo[1,2-a][1,4]diazepines as TREX1 inhibitors” (Venenum Biodesign, LLC, priority 2019, dated 2023)
